These results are taken from PMC11285977, “Identification of drug-like molecules targeting the ATPase activity of dynamin-like EHD4” (PLOS ONE, 2024).

Read-outs that look alike come from different tables or passages of the source.

For one assay, the target named is T1, DNM1L (Homo sapiens, UniProt O00429).
T1 construct: human DNM1L isoform 2 (UniProtID: O00429-3, residues 1–710); made in house
Description: MLG-based stimulated GTPase assay of DNM1L (counter-screen). The format is biochemical. To be noted: 300 nM DNM1L, 40 μM GTP, 25°C; inhibitor 0.125 μM to 50 μM (IC50 curve) or 10 μM (time course). The procedure: Fig 5 Biochemical characterization of the primary hits. A One-hour time course of the MLG-based enzymatic ATPase assay in the presence of 50 μM inhibitor. EHD4^ΔN (blue curve) represents the positive control. B Primary hits were validated at 50 μM inhibitor concentration in an HPLC setup to exclude assay bias. ATPase assays done in A and B were in standard conditions. C Primary hits were tested against EHD2. Only MS8 had no effect on EHD2 ATPase activity. ATPase assay was done at an EHD2 concentration of 5 μM in the presence of 500 μg/ml Folch liposomes and 50 μM ATP in assay buffer at 30°C. D Changes in melting temperature of 5 μM EHD4^ΔN were studied in the presence of 50 μM inhibitor by thermal shift assay. MS1 and MS10 destabilized the protein, as evident by negative ΔTm, whereas MS8 had no effect on the stability of EHD4^ΔN. […] Shown is an IC50 curve plotted with an inhibitor concentration range from 0.125 μM to 50 μM. F MS8 substructure obtained by dissecting the diphenlyether bond. This substructure was used in our chemical search to have the highest diversity of the chemical space and the optimal coverage of chemical vectors to gain a structure-activity relationship.Data points represents the mean of two or more independent experiments and the error bar signifies the range or standard deviation. […] TEXT PRINTED IN THE PICTURE: (D) EHD4^ΔN: Tm = 44.5 °C DOUBTS OF THE COPYIST ABOUT THIS PICTURE: Panel D: 'EHD4^ΔN Tm = 44.5 °C' is the only printed result. It refers to the protein itself (reference melting temperature), not to one of the inhibitors MS1, MS8 or MS10, so it may not count as a result for a substance.
Supplementary file pone.0302704.s004.tif: S4 Fig DNM1L and EHD2 enzymatic assay. A EHD2 ATPase activity by an HPLC-based method. Assay conditions were 5 μM EHD2, 50 μM ATP and 1 mg/ml Folch liposomes at 30°C. […] C Km was determined by first calculating the amount of hydrolyzed GTP in (B) using the standard curve reported in S2C Fig and then plotting the initial rates of the reactions versus the substrate concentration. […]
For orientation: A counterscreen serves to expose hits that act by an unwanted route or on another target.

The target of another assay is T2, EHD2 (Mus musculus, UniProt Q8BH64).
T2 construct: Mouse EHD2 (Uniprot Q8BH64, residues 1–543); made in house
T2 sequence (Q8BH64 1-543): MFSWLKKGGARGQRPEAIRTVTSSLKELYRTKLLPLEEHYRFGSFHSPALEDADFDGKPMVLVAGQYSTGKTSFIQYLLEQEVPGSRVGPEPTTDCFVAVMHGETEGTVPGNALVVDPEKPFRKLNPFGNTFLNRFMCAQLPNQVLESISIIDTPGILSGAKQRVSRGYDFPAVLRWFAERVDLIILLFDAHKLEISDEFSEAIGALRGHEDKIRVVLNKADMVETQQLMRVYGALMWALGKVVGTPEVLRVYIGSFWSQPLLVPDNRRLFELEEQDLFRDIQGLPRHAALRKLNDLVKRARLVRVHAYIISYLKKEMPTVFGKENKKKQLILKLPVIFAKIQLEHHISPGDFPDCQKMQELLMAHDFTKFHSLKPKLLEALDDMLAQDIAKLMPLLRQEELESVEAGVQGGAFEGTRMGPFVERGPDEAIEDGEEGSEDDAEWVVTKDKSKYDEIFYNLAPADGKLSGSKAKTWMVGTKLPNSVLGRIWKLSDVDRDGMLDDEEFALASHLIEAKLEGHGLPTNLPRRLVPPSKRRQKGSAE
Description: HPLC-based EHD2 ATPase assay. The format is biochemical. As to conditions: 5 μM EHD2, 500 μg/ml Folch liposomes, 50 μM ATP, 30°C. The procedure: ATPase assay was performed as mentioned above and at defined time points, reaction aliquots were diluted three times in reaction buffer (50 mM Tris, 150 mM NaCl, pH 7.5) and quickly flash frozen in liquid nitrogen. Samples were applied to an HPLC and nucleotides were separated with reversed phase column (C18 100*4.6 mm) equilibrated with running buffer containing 100 mM potassium phosphate buffer pH 6.5, 10 mM tetrabutylammonium bromide, 7.5% (v/v) acetonitrile. Adenine nucleotides were detected by absorption at 254 nm and quantified by integrating the corresponding nucleotide peaks and determining the ADP/ATP ratios.
Fig 5 Biochemical characterization of the primary hits. A One-hour time course of the MLG-based enzymatic ATPase assay in the presence of 50 μM inhibitor. EHD4^ΔN (blue curve) represents the positive control. B Primary hits were validated at 50 μM inhibitor concentration in an HPLC setup to exclude assay bias. ATPase assays done in A and B were in standard conditions. C Primary hits were tested against EHD2. Only MS8 had no effect on EHD2 ATPase activity. ATPase assay was done at an EHD2 concentration of 5 μM in the presence of 500 μg/ml Folch liposomes and 50 μM ATP in assay buffer at 30°C. D Changes in melting temperature of 5 μM EHD4^ΔN were studied in the presence of 50 μM inhibitor by thermal shift assay. MS1 and MS10 destabilized the protein, as evident by negative ΔTm, whereas MS8 had no effect on the stability of EHD4^ΔN. […] Shown is an IC50 curve plotted with an inhibitor concentration range from 0.125 μM to 50 μM. F MS8 substructure obtained by dissecting the diphenlyether bond. […]
Supplementary file pone.0302704.s004.tif: S4 Fig DNM1L and EHD2 enzymatic assay. […] B Initial velocities of DNM1L GTPase activity at 300 nM DNM1L, and, 500 μg/ml synthetic DOPS, T = 25°C and at different GTP concentrations were determined by a linear fit. C Km was determined by first calculating the amount of hydrolyzed GTP in (B) using the standard curve reported in S2C Fig and then plotting the initial rates of the reactions versus the substrate concentration. […]

In assay [1] the target is T3, EHD4^ΔN (Mus musculus, UniProt Q9EQP2).
T3 construct: mouse EHD4 (Uniprot Q1MWP8, residues 22–541, EHD4^ΔN); His6 followed by PreScission cleavage site (N, cleaved yes); made in house; host or cells: E. coli BL21 DE3 Rosetta
T3 sequence (Q9EQP2 22-541): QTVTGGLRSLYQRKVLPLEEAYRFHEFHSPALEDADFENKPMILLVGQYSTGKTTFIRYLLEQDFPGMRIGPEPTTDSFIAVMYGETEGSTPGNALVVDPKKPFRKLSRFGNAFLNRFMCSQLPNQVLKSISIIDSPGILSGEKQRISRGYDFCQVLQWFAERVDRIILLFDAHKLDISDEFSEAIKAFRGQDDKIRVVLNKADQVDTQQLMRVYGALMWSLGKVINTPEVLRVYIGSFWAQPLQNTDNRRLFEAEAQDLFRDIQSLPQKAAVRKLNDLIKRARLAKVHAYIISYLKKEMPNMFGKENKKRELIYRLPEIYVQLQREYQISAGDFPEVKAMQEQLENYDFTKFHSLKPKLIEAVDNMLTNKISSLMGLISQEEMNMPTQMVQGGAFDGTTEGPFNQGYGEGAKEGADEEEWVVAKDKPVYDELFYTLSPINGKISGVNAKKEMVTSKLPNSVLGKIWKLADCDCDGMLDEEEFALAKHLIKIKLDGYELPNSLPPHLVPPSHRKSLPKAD
In words: Malachite green (MLG)-based liposome-stimulated ATPase assay of EHD4ΔN. The format is biochemical. As to conditions: read-out: IC50, EHD4ΔN ATPase inhibition. As to the method: ATPase assays were performed in a 384 well plate at 25°C (if not otherwise indicated). The assay buffer contained 20 mM HEPES, 150 mM KCl, 0.5 mM MgCl2, pH 7.5. 30 μM of ATP was mixed with 50 μg/ml DOPS in assay buffer. Reaction was started by adding 200 nM EHD4^ΔN. At any given time-point, 25 μl of the reaction was taken out and mixed with 75 μl of the dye in a 384 well plate. The reaction gets quenched by the addition of the dye which denatures the protein. Absorbance at 650 nm was measured in a plate reader (Tecan, Infinite M200).
Screening was conducted at the Screening Unit of the Leibniz-Forschungsinstitut für Molekulare Pharmakologie (FMP) using a kinase drug library and the ‘diversity set’. 15,840 compounds were tested as singlets in 384 well plate format. A master mix (MM) was prepared in the assay buffer to have a final ATP concentration of 30 μM and DOPS concentration of 50 μg/ml. A 10 mM DMSO solution of the compounds was serially diluted, first with DMSO and then with the MM to a final concentration of 10 μM (1% of DMSO), using the Tecan-Evo workstation (pipetting robot). EHD4^ΔN (200 nM) was pipetted using multi-drop dispensing cassette. To have homogenous enzymatic activity, the plates were vortexed using a microplate mixer at 2,000 rpm for 10 s. The plates were incubated for 15 min at room temperature and 75 μl of MLG dye added with the cassette. The plates were measured in a Perkin Elmer Envision plate reader.
Data were analyzed with an automated pipeline using KNIME software. For the individual plates, the corresponding Z´ values and SNR were calculated. Compared to the control´s absorbance at 650 nm (Abs650), compounds were classified as inhibitors if the %Abs650 was ≤ 25%. These hits were picked from the drug library and used for further validation of IC50 determination and counter screening. IC50 values were determined in the same setup with varying inhibitor concentrations from 0.125 μM to 50 μM.

The target of assay [2] is T3, EHD4^ΔN. Description: Thermal shift assay (TSA). To be noted: 5 μM EHD4ΔN, 50 μM inhibitor. The format is binding. The procedure: TSA was done in a CFX96 touch-real time PCR using a fluorescent dye from ThermoFisher Scientific (catalogue number 4461146). Reactions (5 μM EHD4^ΔN, 50 μM inhibitor and 1X dye) were prepared on ice, to a final volume of 50 μl and transferred to a 96 well PCR plate and then sealed with a plastic film. CFX96 was precooled to 4°C and the PCR plate was inserted. The fluorescence was measured from 4°C to 80°C with 0.5°C temperature steps. Protein melting temperature was calculated with the provided software (Bio-Rad) and plotted as bar diagram using GraphPad Prism 7.05.

[3] abbreviates: compounds picked from the drug library, duplicates, inhibitor 0.125 μM to 50 μM, 200 nM EHD4ΔN, 30 μM ATP, 50 μg/ml DOPS.

T1 sequence (O00429 1-710 isoform O00429-3): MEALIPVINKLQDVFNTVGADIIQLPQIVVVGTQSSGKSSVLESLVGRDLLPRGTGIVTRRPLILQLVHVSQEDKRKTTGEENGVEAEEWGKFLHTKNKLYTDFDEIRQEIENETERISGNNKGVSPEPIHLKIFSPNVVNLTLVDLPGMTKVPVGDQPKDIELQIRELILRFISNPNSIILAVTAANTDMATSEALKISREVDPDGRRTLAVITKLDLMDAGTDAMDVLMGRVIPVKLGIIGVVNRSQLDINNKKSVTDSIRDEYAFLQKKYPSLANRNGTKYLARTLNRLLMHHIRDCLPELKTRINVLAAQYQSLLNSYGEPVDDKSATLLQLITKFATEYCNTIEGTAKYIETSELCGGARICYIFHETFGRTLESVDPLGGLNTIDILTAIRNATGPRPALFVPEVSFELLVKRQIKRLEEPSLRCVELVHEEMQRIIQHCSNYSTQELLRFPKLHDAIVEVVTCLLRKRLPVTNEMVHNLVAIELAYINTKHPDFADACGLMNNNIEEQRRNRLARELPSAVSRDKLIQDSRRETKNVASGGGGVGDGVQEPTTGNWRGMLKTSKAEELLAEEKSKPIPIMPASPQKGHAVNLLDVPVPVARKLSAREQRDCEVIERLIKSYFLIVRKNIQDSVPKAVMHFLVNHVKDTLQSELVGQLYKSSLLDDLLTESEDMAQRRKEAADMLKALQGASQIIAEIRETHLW

With `O=C(CCCCCn1sc2ccccc2c1=O)Nc1ccccc1O` [MS1, N-(2-hydroxyphenyl)-6-(3-oxo-2,3-dihydro-1,2-benzothiazol-2-yl)hexanamide], at DNM1L, the “effect on stimulated GTPase activity of DNM1L” value (from here on “effect … of DNM1L”) is “did not interfere”. Further, the “effect on EHD2 enzymatic (ATPase) activity” value (from here on “effect on EHD2 enzymatic”) on EHD2 is “inhibited”. In addition, the IC50 was 0.92 µM at EHD4^ΔN [1] (setting [3]) and 2.4 µM at EHD4^ΔN [1] (repurchased compounds). Besides, the “effect on EHD4ΔN stability (thermal shift)” value on EHD4^ΔN [2] was “destabilizing effect”. Besides, on EHD4^ΔN [2] (Tm of protein alone 44.5°C), the ΔTm at 50 µM was -5 °C.
As for `Cc1csc(NC(=O)c2cccc(Oc3ccccc3)c2)n1` [MS8, N-(4-methyl-1,3-thiazol-2-yl)-3-phenoxybenzamide], the “effect … of DNM1L” value at DNM1L was “did not inhibit”. The “effect on EHD2 enzymatic” value on EHD2 was “no effect”. Further, the IC50 on EHD4^ΔN [1] (setting [3]) was found to be 3.8 µM; at EHD4^ΔN [1] (repurchased compounds) it was 4.9 µM. For the same compound, the “effect on EHD4ΔN stability (thermal shift)” value at EHD4^ΔN [2] was “no such effect”.
Consider `Oc1cc2c(cc1C(c1ccc(C(F)(F)F)cc1)N1CCOCC1)OCO2` (stereo not shown) [MS10, 6-(Morpholino(4-(Trifluormethyl)phenyl)methyl)-1,3-Benzodioxol-5-ol], for which the “effect … of DNM1L” value at DNM1L was “did not interfere”. Moreover, the “effect on EHD2 enzymatic” value at EHD2 was “inhibited”. Besides, the IC50 is 2.9 µM on EHD4^ΔN [1] (setting [3]) and 4.8 µM on EHD4^ΔN [1] (repurchased compounds). The “effect on EHD4ΔN stability (thermal shift)” value on EHD4^ΔN [2] is “diminished EHD4^ΔN stability”.

One may read the IC50 as the concentration that inhibits the measured activity by half. Usually ΔTm stands for the change in melting temperature against a reference sample.
